Patent publication US7626077B2, “Glyphosate-resistant plants” (Mertec LLC, priority 2002, dated 2009)

How the values were obtained:
[1] = test system: cultured immature corn embryos transformed with SEQ ID NO: 6; assay: Selection of beamed corn embryos on glyphosate-containing medium; assay type: cell-based, Zea mays; conditions: 540 mg/l glyphosate, DN62540RR medium, aerosol beam transformation with SEQ ID NO: 6
Method: The Cla I and Eco RV fragment (SEQ ID NO: 6) of HCEM was introduced into cultured immature corn embryos using an aerosol beam injector according to U.S. patent application Ser. No. 09/450,226. The Cia I-Eco RV fragment comprised the glyphosate-resistant EPSPS coding sequence.
Selection was carried out as follows: the beamed embryos were allowed to remain on DN62A0S20G medium for 5 days.
The beamed embryos were then transferred to DN62A100RR—a medium containing 100 mg/l glyphosate. After two 14-day passages on DN62A100RR, actively growing tissue is transferred to DN62A300RR medium which contains 300 mg/l (Table 3). After two 14-day passages on this medium, tissue was finally transferred to DN62540RR medium which contains 540 mg/i glyphosate (Table 3). […] Regeneration is carried out as described in U.S. patent application Ser. No. 09/450,226.

[2] = test system: co-cultivated corn embryos; assay: Selection of Agrobacterium co-cultivated corn embryos on glyphosate-containing medium; assay type: cell-based, Zea mays; conditions: 540 mg/l glyphosate, DN62540RR medium, Agrobacterium-mediated DNA delivery
Method: Transformation can also be accomplished using Agrobacterium-mediated DNA delivery. In this case, the transformation and regeneration are performed according to the methods as described in U.S. patent application Ser. No. 09/203,679, which is herein incorporated by reference. Briefly, after culturing on DN62A0S20GLC (Table 2) for five days, co-cultivated embryos are transferred to DN62ALC180RR medium which contains 180 mg/l glyphosate (Table 3). After two 14-day passages on this medium, actively growing tissue is transferred to DN62540RR medium containing 540 mg/l glyphosate (Table 3). […] Regeneration is carried out as described in U.S. Ser. No. 09/203,679.

[3] = test system: regenerated soybean plants transformed with mutant epm1 and/or mutant epm2; assay: Glyphosate spray of regenerated transgenic soybean plants and progenies; assay type: in vivo; conditions: sprayed at commercial rates, greenhouse
Source text: The Bam HI/Sac II fragment (SEQ ID NO: 2) of epm1 vector and the Eco RI fragment (SEQ ID NO: 4) of epm2 vector were used to transform soybean embryogenic callus using an aerosol beam injector as described in U.S. patent application Ser. No. 09/450,226, which is incorporated herein by reference. These fragments comprised mutant epm1 and mutant epm2 which encode (putative) glyphosate-resistant EPSPSs. These fragments were used either alone or, preferably, together.
The transformed tissue is selected for glyphosate resistance using the method described below. First, the beamed embryogenic callus is maintained for one month on B1-30 3Co5My0.01PA medium.
The tissue is then transferred to the same medium but now containing 300 mg/l glyphosate. After a number of passages (up to 5 passages, each passage may last for about a month) on this latter medium, resistant clonal material may be identified. After an optional further few passages on B1-30 3Co5My0.01PA medium but containing 500 mg/l glyphosate, the growing tissue is transferred to a regeneration media as described in U.S. Pat. Ser. No. 09/450,226. Regenerated plants are transferred to pots in a greenhouse. […] Progenies are expected to 3:1 for glyphosate resistance as would be expected for Mendelian inheritance of a transgene.

O=C(O)CNCP(=O)(O)O [glyphosate, N-phosphonomethylglycine]
growth of stably transformed tissue on glyphosate medium [1]: continued growth
growth of stably transformed tissue on glyphosate medium [2]: continued growth
resistance of regenerated plants and progenies to glyphosate spray [3]: complete resistance
